Measured values from the CheMixHub viscosity set.

Assay: xn = mol fraction of the nth substance listed

CCCCCCCCCCCCCC + COC(=O)c1ccccc1
101 kPa
Conditions	viscosity [mPa·s]
298.15 K, x1 = 0.0359	1.787
298.15 K, x1 = 0.0603	1.763
298.15 K, x1 = 0.0869	1.742
298.15 K, x1 = 0.114	1.723
298.15 K, x1 = 0.1429	1.706
298.15 K, x1 = 0.1751	1.695
298.15 K, x1 = 0.2075	1.686
298.15 K, x1 = 0.2786	1.675
298.15 K, x1 = 0.3166	1.672
298.15 K, x1 = 0.3592	1.673
298.15 K, x1 = 0.4082	1.68
298.15 K, x1 = 0.4539	1.688
298.15 K, x1 = 0.5114	1.7
298.15 K, x1 = 0.5687	1.718
298.15 K, x1 = 0.6228	1.743
298.15 K, x1 = 0.6938	1.782
298.15 K, x1 = 0.7735	1.842
298.15 K, x1 = 0.8501	1.905
308.15 K, x1 = 0.0334	1.486
308.15 K, x1 = 0.0663	1.471
308.15 K, x1 = 0.0869	1.464
308.15 K, x1 = 0.1156	1.452
308.15 K, x1 = 0.1423	1.444
308.15 K, x1 = 0.1737	1.436
308.15 K, x1 = 0.2082	1.428
308.15 K, x1 = 0.2405	1.422
308.15 K, x1 = 0.2806	1.418
308.15 K, x1 = 0.3218	1.415
308.15 K, x1 = 0.3558	1.415
308.15 K, x1 = 0.4082	1.42
308.15 K, x1 = 0.4482	1.426
308.15 K, x1 = 0.5073	1.438
308.15 K, x1 = 0.5627	1.455
308.15 K, x1 = 0.62	1.478
308.15 K, x1 = 0.6846	1.508
308.15 K, x1 = 0.7661	1.553
308.15 K, x1 = 0.8624	1.613
318.15 K, x1 = 0.0194	1.263
318.15 K, x1 = 0.0462	1.25
318.15 K, x1 = 0.071	1.242
318.15 K, x1 = 0.1011	1.231
318.15 K, x1 = 0.1287	1.223
318.15 K, x1 = 0.1619	1.213
318.15 K, x1 = 0.193	1.205
318.15 K, x1 = 0.2311	1.198
318.15 K, x1 = 0.267	1.193
318.15 K, x1 = 0.3111	1.189
318.15 K, x1 = 0.3471	1.186
318.15 K, x1 = 0.3979	1.187
318.15 K, x1 = 0.4448	1.189
318.15 K, x1 = 0.5017	1.196
318.15 K, x1 = 0.5526	1.206
318.15 K, x1 = 0.6171	1.222
318.15 K, x1 = 0.6828	1.244
318.15 K, x1 = 0.7602	1.276
318.15 K, x1 = 0.8353	1.314

C1CCC2CCCCC2C1 (configuration not stated) + COC(C)(C)C
303.15 K, 101 kPa
Conditions	viscosity [mPa·s]
x2 = 0.1134	1.739
x2 = 0.184	1.547
x2 = 0.2577	1.367
x2 = 0.3906	1.089
x2 = 0.4774	0.935
x2 = 0.5234	0.863
x2 = 0.6441	0.694
x2 = 0.7771	0.543
x2 = 0.8937	0.431

C=CC(C)(O)CCC=C(C)C (configuration not stated) + COC(C)(C)C
298.15 K, 101.33 kPa
Conditions	viscosity [mPa·s]
x2 = 0.0756	3.692
x2 = 0.1208	3.314
x2 = 0.1819	2.856
x2 = 0.3063	2.093
x2 = 0.3763	1.761
x2 = 0.5129	1.25
x2 = 0.5989	0.9982
x2 = 0.7222	0.7171
x2 = 0.8148	0.5569
x2 = 0.9106	0.4273
x2 = 0.9692	0.3605

O=[N+]([O-])c1ccccc1 + COC(C)(C)C
viscosity [mPa·s], 101.33 kPa
Conditions	x2 = 0.0921	x2 = 0.1852	x2 = 0.2942	x2 = 0.3906	x2 = 0.4845	x2 = 0.695	x2 = 0.7094	x2 = 0.8055	x2 = 0.9053
293.15 K	1.745	1.535	1.345	1.096	1.011	0.7813	0.659	0.5509	0.4676
298.15 K	1.625	1.402	1.203	0.9995	0.8725	–	0.6043	0.507	0.4335

O=[N+]([O-])c1ccccc1 + COC(C)=O
viscosity [mPa·s], 101 kPa
Conditions	298.15 K	308.15 K
x2 = 0.0418	1.689	1.459
x2 = 0.1491	1.449	1.261
x2 = 0.2508	1.25	1.095
x2 = 0.3515	1.076	0.949
x2 = 0.4403	0.941	0.834
x2 = 0.4882	0.875	0.777
x2 = 0.5492	0.796	0.71
x2 = 0.649	0.681	0.611
x2 = 0.7499	0.58	0.523
x2 = 0.8513	0.492	0.446
x2 = 0.9379	0.426	0.388

O=[N+]([O-])c1ccccc1 + COCCO
Conditions	viscosity [mPa·s]
298.15 K, 101 kPa, x1 = 0.0511	1.561
298.15 K, 101 kPa, x1 = 0.101	1.58
298.15 K, 101 kPa, x1 = 0.2028	1.624
298.15 K, 101 kPa, x1 = 0.3038	1.673
298.15 K, 101 kPa, x1 = 0.4004	1.72
298.15 K, 101 kPa, x1 = 0.4502	1.743
298.15 K, 101 kPa, x1 = 0.5003	1.764
298.15 K, 101 kPa, x1 = 0.5524	1.785
298.15 K, 101 kPa, x1 = 0.6001	1.801
298.15 K, 101 kPa, x1 = 0.6981	1.829
298.15 K, 101 kPa, x1 = 0.7856	1.847
298.15 K, 101 kPa, x1 = 0.8931	1.85
298.15 K, 101 kPa, x1 = 0.9407	1.839
303.15 K, 101.33 kPa, x2 = 0.132	1.553
303.15 K, 101.33 kPa, x2 = 0.2148	1.514
303.15 K, 101.33 kPa, x2 = 0.2725	1.49
303.15 K, 101.33 kPa, x2 = 0.3929	1.453
303.15 K, 101.33 kPa, x2 = 0.5243	1.428
303.15 K, 101.33 kPa, x2 = 0.5584	1.425
303.15 K, 101.33 kPa, x2 = 0.7423	1.409
303.15 K, 101.33 kPa, x2 = 0.8512	1.397
303.15 K, 101.33 kPa, x2 = 0.9147	1.391
